According to ChEMBL document CHEMBL1141822, “Tenellic acids A-D: new bioactive diphenyl ether derivatives from the aquatic fungus Dendrospora tenella” (1999):
Calls of active or inactive are those of the source. The calls are words filed in the database; no cut-off is given here.

What was measured:
Bacillus subtilis = experiment: Antimicrobial activity against Bacillus subtilis ATCC 6051 at 200 ug/disk; type: functional; conditions: read-out: IZ
Staphylococcus aureus = experiment: Antimicrobial activity against Staphylococcus aureus ATCC 29213 at 200 ug/disk; type: functional; conditions: read-out: IZ
Candida albicans = experiment: Antimicrobial activity against Candida albicans ATCC 14053 at 200 ug/disk; type: functional, organism-based

SMILES | zone of inhibition at 200 µg/disc (Bacillus subtilis) [mm] | zone of inhibition at 200 µg/disc (Staphylococcus aureus) [mm] | Activity (Candida albicans)
COc1c(C(CC(C)C)OCC(C)C)ccc(Oc2c(O)cc(C)cc2C=O)c1C(=O)O (stereo not given) [TENELLIC ACID D] | 29 | 25 | inactive
COc1c(C(CC(C)C)OC)ccc(Oc2c(O)cc(C)cc2C=O)c1C(=O)O (stereo not given) [TENELLIC ACID A] | 11 |  | inactive
COc1c(C(O)CC(C)C)ccc(Oc2c(O)cc(C)cc2C=O)c1C(=O)O (stereo not given) [TENELLIC ACID B] | 9 |  | inactive
COc1c(C(CC(C)C)OC(C)=O)ccc(Oc2c(O)cc(C)cc2C=O)c1C(=O)O (stereo not given) [TENELLIC ACID C] | 12 | 14 | inactive
